Test results as given in patent US20090258869A1, “METHODS AND COMPOUNDS FOR TREATMENT OR PREVENTION OF SUBSTANCE-RELATED DISORDERS” (The Regents of the University of California, priority 2008, published 2009).

Assays:
[1] = general statement, no test described; cited from earlier work
animals = conditions: literature; cited from earlier work
[2] = tested on: Tyrosine hydroxylase (TH); test: TH protein levels (immunoreactivity) by Western blot in ethanol-treated SH-SY5Y cells; format: cell-based, human
Procedure: (§1) Cell culture. […] MEM nonessential amino acid solution (Invitrogen).
(§2) Treatments. Cells were treated with ethanol for 12-48 h in low serum media by replacing the media with ethanol every 12 h. […] PI-PLC was incubated with cells at a concentration of 0.3 u/ml for 1 h as described previously (1). Anti-GDNF neutralizing antibodies were dissolved in PBS and were used at a concentration of 10 μg/ml.
(§3) Western blot and immunoprecipitation. Cells were collected and lysed in RIPA buffer plus protease and phosphatase inhibitor cocktails for Western blot and immunoprecipitation as described previously (1,30). Briefly, 15 μg of each homogenate was subjected to an SDS-PAGE gel and blotted on a nitrocellulose membrane for Western blot analysis with anti-TH antibody or other primary antibodies, followed by reprobing with anti-Actin antibody. Alternatively, 500 μg of each homogenate was incubated with 5 μg of anti-TH, anti-HSP90 or anti-Akt antibodies in TBS-T buffer overnight at 4° C.1 followed by a 2-h incubation with Protein G agarose beads. Immunoprecipitates were separated on an SDS-PAGE gel for Western blot analysis.
(§4) Quantification and statistical analysis.

Hsp90 = Hsp90 protein levels by Western blot in SH-SY5Y cells; format: cell-based, human
Procedure: as §1, §2, §3, §4

TH-Hsp90 association = test: Co-immunoprecipitation of TH with Hsp90 in SH-SY5Y cells; format: cell-based, human; conditions: 100 mM ethanol 24 h
Procedure: Treatments. […] PI-PLC was incubated with cells at a concentration of 0.3 u/ml for 1 h as described previously (1). Anti-GDNF neutralizing antibodies were dissolved in PBS and were used at a concentration of 10 μg/ml.

[3] = tested on: Tyrosine hydroxylase (TH); test: Pulse-chase analysis of 35S-labeled TH protein stability in SH-SY5Y cells; format: cell-based, human
Procedure: as §1
Pulse-chase analysis. 24 h after ethanol treatment, cells were labeled following a pulse-chase procedure as described previously (31) with modifications. Briefly, cells were incubated with methionine/cystine-free DMEM (Invitrogen) containing 1% dialyzed FBS for 1 h and then labeled in the Met/Cysfree medium containing 25 μCi of Amersham Redivue Pro-Mix L-[35S] in vitro Cell Labeling Mix per ml for 3 h. Dialysis of FBS was performed against the Met/Cys-free medium overnight. After labeling, cells were washed twice with the normal medium and chased in the normal medium without ethanol for 2-8 h before homogenizing as described above. Homogenates were centrifuged and protein concentrations of the supernatants were determined. An equal amount of protein from each sample was immunoprecipitated with anti-TH antibody and separated by electrophoresis on an 8% SDS gel. Autoradiography was performed by exposure of the dried gels to Amersham Storage Phosphor Screen and visualization of radioactive signals using the Typhoon 9410 Variable Mode Imager (GE Healthcare).
as §4

TH mRNA = conditions: 100 mM ethanol 12 h or 24 h
[4] = tested on: Akt kinase and Hsp90 association; conditions: 100 mM ethanol 24 h
GDNF gene expression = conditions: in vitro in SH-SY5Y cells and in the midbrain region containing the VTA in vivo; previously reported; cited from earlier work
[5] = 100 mM ethanol 24 h, 25 ng/ml GDNF added for the last 12 h

Molecule: CO[C@H]1/C=C\C=C(/C)C(=O)NC2=CC(=O)C(NCCN(C)C)=C(C[C@@H](C)C[C@H](OC)[C@H](O)[C@@H](C)/C=C(\C)[C@@H]1OC(N)=O)C2=O [17-DMAG, 17-(2 dimethylaminoethyl)amino-17-desmethoxy-geldanamycin]
- water solubility [1]: more soluble

Molecule: COC1=C2C[C@@H](C)C[C@H](OC)[C@H](O)[C@@H](C)/C=C(\C)[C@H](OC(N)=O)[C@@H](OC)/C=C\C=C(/C)C(=O)NC(=CC1=O)C2=O [GA, Geldanamycin]
- water solubility [1]: less than ideal

Molecule: O=C1CC[C@@]2(O)[C@H]3Cc4ccc(O)c5c4[C@@]2(CCN3CC2CC2)[C@H]1O5 [Naltrexone, naltrexone]
- ethanol consumption in animal studies (animals): decrease

Molecule: C[C@@H]1C[C@@H]([C@H](O)CC2CC(=O)NC(=O)C2)C(=O)[C@@H](C)C1 [cycloheximide, reference compound]
- ethanol-mediated increases in TH protein levels ([2]; 100 mM ethanol 24 h, 30 μg/ml CHX for the last 12 h): did not inhibit

Molecule: CCO [ethanol]
- immunoreactivity of TH ([2]; 10 mM ethanol, 24 h): significant increase
- duration of ethanol-induced increase in TH protein levels ([2]; 100 mM ethanol 24 h, detected 24 h after ethanol washout): long-lasting
- TH protein levels ([2]; 100 mM ethanol, after 24 h and 48 h of exposure): increase
- increase in TH protein levels, dependence on ethanol concentration ([2]; different concentrations of ethanol, 24 h): dose-dependent manner
- protein level of Hsp90 (Hsp90; 100 mM ethanol alone, 12 h or 24 h): did not alter
- association of TH with Hsp90 (TH-Hsp90 association): induced
- quantity of 35S-labeled TH protein at all points in the chase time course ([3]; 100 mM ethanol 24 h before pulse-chase, compared to control): increase
- TH mRNA (TH mRNA): did not increase
- association between Akt kinase and Hsp90 [4]: did not alter

Molecule: ibogaine [reference compound]
- ethanol induced increases in TH levels ([2]; 100 mM ethanol 24 h, 10 μM ibogaine added for the last 12 h): inhibited
- GDNF gene expression (GDNF gene expression): increases

B1: GDNF: Recombinant human GDNF polypeptide (glial cell line derived neurotropic factor) from R&D Systems (protein, UniProt P39905 78-211, looked up)
Glial cell line-derived …: SPDKQMAVLPRRERNRQAAAANPENSRGKGRRGQRGKNRGCVLTAIHLNVTDLGLGYETKEELIFRYCSGSCDAAETTYDKILKNLSRNRRLVSDKVGQACCRPIAFDDDLSFLDDNLVYHILRKHSAKRCGCI
- ethanol-mediated increase in TH levels [2, 5]: reversed
- Hsp90 immunoreactivity (Hsp90; [5]): not due to alteration
- ethanol-mediated association of Hsp90 with TH (TH-Hsp90 association; 25 ng/ml GDNF added for the last 12 h): reversed
- quantity of 35S-labeled TH at all points on the chase time course [3, 5]: downregulates
